Assay results taken from patent US9732037B2, “2-aminopyridine-based selective neuronal nitric oxide synthase inhibitors” (Northwestern University, priority 2013, dated 2017).

Assays:
Assay type in all cases: biochemical
murine iNOS = murine iNOS (Mus musculus (Mouse), UniProt P29477); experiment: NOS inhibition assay, iNOS; settings: for Ki: murine iNOS, KM 8.2 μM, Ki = IC50/(1 + [S]/KM); for Selectivity i/n: ratio of Ki (iNOS) to nNOS
From the text: (§1) Nitric oxide formation from NOS was monitored using literature techniques.

bovine eNOS = bovine eNOS (Bos taurus (Bovine), UniProt P29473); experiment: NOS inhibition assay, eNOS; settings: for Ki: bovine eNOS, KM 1.7 μM, Ki = IC50/(1 + [S]/KM); for Selectivity e/n: ratio of Ki (eNOS) to nNOS
From the text: as §1

rat nNOS = rat nNOS (Rattus norvegicus (Rat), UniProt P29476); experiment: NOS inhibition assay, nNOS; settings: KM 1.3 μM, Ki = IC50/(1 + [S]/KM)
From the text: as §1

Cc1cc(N)nc(COc2cccc(OCCCN)c2)c1 [Compound 1] was tested. Which Ki (murine iNOS) did it give?
Its Ki is 8470 nM.

And the Ki (bovine eNOS)?
Its Ki is 18000 nM.

What about the Ki (rat nNOS) of the same compound?
The Ki was 60 nM.

For Cc1cc(N)nc(COc2cccc(OCc3ccncc3)c2)c1 [Compound 2], which Ki (murine iNOS) is on record?
Its Ki is 27100 nM.

What about the Ki (bovine eNOS) of the same compound?
The Ki was 62800 nM.

What about the Ki (rat nNOS) of the same compound?
Its Ki is 616 nM.

Which Ki (murine iNOS) does the source give for Cc1cc(N)nc(COc2cccc(OCC3CCNCC3)c2)c1 [Compound 3] here?
The Ki was 17100 nM.

What about the Ki (bovine eNOS) of the same compound?
The Ki was 28000 nM.

What about the Ki (rat nNOS) of the same compound?
The Ki was 117 nM.

Cc1cc(N)nc(COC[C@@H]2C[C@@H](OCc3cc(C)cc(N)n3)CN2)c1 [Compound 6] was tested. Which Ki (murine iNOS) did it give?
The Ki was 2270 nM.

What about the Selectivity i/n (murine iNOS) of the same compound?
The Selectivity i/n was 87.

What about the Ki (bovine eNOS) of the same compound?
The Ki was 2180 nM.

What about the Selectivity e/n (bovine eNOS) of the same compound?
Its Selectivity e/n is 84.

And the Ki (rat nNOS)?
The Ki was 26 nM.

Which Ki (murine iNOS) does the source give for Cc1cc(N)nc(COC[C@H]2C[C@@H](OCc3cc(C)cc(N)n3)CN2)c1 [Compound 7] here?
The Ki was 5590 nM.

What about the Selectivity i/n (murine iNOS) of the same compound?
The Selectivity i/n was 164.

And the Ki (bovine eNOS)?
Its Ki is 3470 nM.

What about the Selectivity e/n (bovine eNOS) of the same compound?
The Selectivity e/n was 102.

And the Ki (rat nNOS)?
The Ki was 34 nM.

What does the source list for Cc1cc(N)nc(COC[C@@H]2C[C@H](OCc3cc(C)cc(N)n3)CN2)c1 [Compound 8]?
Ki (murine iNOS): 1900 nM; Selectivity i/n (murine iNOS): 61; Ki (bovine eNOS): 2360 nM; Selectivity e/n (bovine eNOS): 76; Ki (rat nNOS): 31 nM

Which Ki (murine iNOS) does the source give for Cc1cc(N)nc(COC[C@H]2C[C@H](OCc3cc(C)cc(N)n3)CN2)c1 [Compound 9] here?
The Ki was 2950 nM.

And the Selectivity i/n (murine iNOS)?
Its Selectivity i/n is 295.

What about the Ki (bovine eNOS) of the same compound?
Its Ki is 6930 nM.

And the Selectivity e/n (bovine eNOS)?
Its Selectivity e/n is 693.

What about the Ki (rat nNOS) of the same compound?
Its Ki is 10 nM.

How did the Ki (murine iNOS) turn out when Cc1cc(N)nc(COCCOC[C@@H]2C[C@@H](OCc3cc(C)cc(N)n3)CN2)c1 [Compound 10] was run?
The Ki was 2320 nM.

And the Selectivity i/n (murine iNOS)?
Its Selectivity i/n is 33.

And the Ki (bovine eNOS)?
Its Ki is 6250 nM.

And the Selectivity e/n (bovine eNOS)?
The Selectivity e/n was 89.

And the Ki (rat nNOS)?
Its Ki is 70 nM.

Which Ki (murine iNOS) does the source give for Cc1cc(N)nc(COCCOC[C@H]2C[C@@H](OCc3cc(C)cc(N)n3)CN2)c1 [Compound 11] here?
Its Ki is 13600 nM.

What about the Selectivity i/n (murine iNOS) of the same compound?
The Selectivity i/n was 68.

And the Ki (bovine eNOS)?
The Ki was 9300 nM.

What about the Selectivity e/n (bovine eNOS) of the same compound?
Its Selectivity e/n is 46.

And the Ki (rat nNOS)?
The Ki was 199 nM.

With Cc1cc(N)nc(CO[C@H]2CN[C@H](COCCOCc3cccc(F)c3)C2)c1 [Compound 12] as the compound, how does the Ki (murine iNOS) read?
Its Ki is 5860 nM.

What about the Selectivity i/n (murine iNOS) of the same compound?
Its Selectivity i/n is 38.

And the Ki (bovine eNOS)?
The Ki was 7960 nM.

And the Selectivity e/n (bovine eNOS)?
Its Selectivity e/n is 52.

And the Ki (rat nNOS)?
The Ki was 153 nM.

For Cc1cc(N)nc(CO[C@H]2CN[C@@H](COCCOCc3cccc(F)c3)C2)c1 [Compound 13], which Ki (murine iNOS) is on record?
The Ki was 8470 nM.

What about the Selectivity i/n (murine iNOS) of the same compound?
Its Selectivity i/n is 26.

What about the Ki (bovine eNOS) of the same compound?
Its Ki is 11700 nM.

And the Selectivity e/n (bovine eNOS)?
Its Selectivity e/n is 35.

What about the Ki (rat nNOS) of the same compound?
The Ki was 330 nM.
